Measured values from patent publication US7776924B2, “Nitroaniline-based alkylating agents and their use as prodrugs” (Auckland Uniservices Limited, priority 2002, dated 2010).
pIC50: −log10 of the molar value. Marks after values point to notes of the source that are not given here.

Legend:
Format in all cases: cell-based
WC14.10 = assay: Cytotoxicity in NTR-transfected (NR+) human colon cell line WC14.10; settings: for pIC50: WC14.10 NTR-transfected
WIDR = assay: Cytotoxicity in wild-type (NR−) human colon cell line WIDR
SC3.2 = assay: Cytotoxicity in NTR-transfected (NR+) human ovarian cell line SC3.2; settings: for pIC50: SC3.2 NTR-transfected, 18 h exposure; for Ratio = IC50(NR−)/IC50(NR+) Human Ovarian: SKOV3 / SC3.2, 18 h exposure
SKOV3 = assay: Cytotoxicity in wild-type (NR−) human ovarian cell line SKOV3
[1] = system: A549 transfected with human cytochrome P450 reductase (P450R); assay: Cytotoxicity in oxic and anoxic A549 cells transfected with human cytochrome P450 reductase; settings: 4 h exposure; for pIC50: anoxic
[2] = system: A549 human lung carcinoma cells; assay: Cytotoxicity in oxic and anoxic wild-type A549 human lung carcinoma cells; settings: 4 h exposure; for pIC50: anoxic, read-out: IC50 WT anoxic
[3] = Homo sapiens, SK-OV-3, 18 h exposure

Structure (SMILES) | pIC50 (WC14.10; Homo sapiens, 18 h exposure) | Ratio = IC50(NR−)/IC50(NR+) Human colon (WC14.10; WIDR / WC14.10, 18 h exposure) | pIC50 (WIDR; Homo sapiens, 18 h exposure) | pIC50 (SC3.2; Homo sapiens) | Ratio = IC50(NR−)/IC50(NR+) Human Ovarian (SC3.2) | pIC50 (SKOV3; [3]) | pIC50 (WC14.10; 18 h exposure) | pIC50 (WIDR; 18 h exposure) | pIC50 (SC3.2) | pIC50 (SKOV3; 18 h exposure) | P450R ratio = IC50(aerobic)/IC50(anoxic) [1] | pIC50 [1] | WT Ratio = IC50(aerobic)/IC50(anoxic) [2] | pIC50 [2] | pIC50 (WC14.10; 4 h exposure) | Ratio = IC50(NR−)/IC50(NR+) Human colon (WC14.10; WIDR / WC14.10, 4 h exposure) | pIC50 (WIDR; 4 h exposure)
NC(=O)c1cc(N(CCCl)CCBr)c([N+](=O)[O-])cc1[N+](=O)[O-] [IIa2, 5-[(2-Bromoethyl)(2-chloroethyl)amino]-2,4-dinitrobenzamide] | 6.16 | 235 | 3.82 | 6.08 | 280 | 3.65 | – | – | – | – | – | – | – | – | – | – | –
CS(=O)(=O)OCCN(CCBr)c1cc(C(N)=O)c([N+](=O)[O-])cc1[N+](=O)[O-] [IIa3, 2-[5-(Aminocarbonyl)(2-bromoethyl)-2,4-dinitroanilino]ethyl methanesulfonate] | – | 387 | – | – | 715 | – | 6.66 | 4.10 | 6.72 | 3.87 | – | – | – | – | – | – | –
CS(=O)(=O)OCCN(CCI)c1cc(C(N)=O)c([N+](=O)[O-])cc1[N+](=O)[O-] [IIa4, 2-[5-(Aminocarbonyl)(2-iodoethyl)-2,4-dinitroanilino]ethyl methanesulfonate] | – | 172 | – | – | 311 | – | 6.39 | 4.15 | 6.48 | 4.01 | – | – | – | – | – | – | –
CS(=O)(=O)OCCN(CCBr)c1cc(C(=O)NCCO)c([N+](=O)[O-])cc1[N+](=O)[O-] [IIa5, 2-((2-Bromoethyl)5-{[(2-hydroxyethyl)amino]carbonyl}-2,4-dinitroanilino)ethyl methanesulfonate] | – | 250 | – | – | 470 | – | 6.11 | 3.72 | 6.21 | 3.54 | 9.9 | 4.14 | 5.2 | 3.86 | – | – | –
CS(=O)(=O)OCCN(CCBr)c1cc(C(=O)NCCCO)c([N+](=O)[O-])cc1[N+](=O)[O-] [IIa6, 2-((2-Bromoethyl)5-{[(3-hydroxypropyl)amino]carbonyl}-2,4-dinitroanilino)ethyl methanesulfonate] | – | 91 | – | – | – | – | 5.30 | 3.34 | – | – | 18 | 4.51 | 2.4 | 3.46 | – | – | –
CS(=O)(=O)OCCN(CCBr)c1cc(C(=O)NCC(O)CO)c([N+](=O)[O-])cc1[N+](=O)[O-] (stereo not shown) [IIa7, 2-((2-Bromoethyl)-5-{[(2,3-dihydroxypropyl)amino]carbonyl}-2,4-dinitroanilino)ethyl methanesulfonate] | – | 268 | – | – | – | – | 5.52 | 3.09 | 5.76 | 2.95 | – | – | – | – | – | – | –
CS(=O)(=O)OCCN(CCCl)c1c(C(N)=O)cc([N+](=O)[O-])cc1[N+](=O)[O-] [IIb1, 2-[2-(Aminocarbonyl)(2-chloroethyl)-4,6-dinitroanilino]ethyl methanesulfonate] | – | 303 | – | – | 1890 | – | 7.15 | 4.70 | 7.40 | 4.10 | – | – | – | – | – | – | –
CS(=O)(=O)OCCN(CCBr)c1c(C(N)=O)cc([N+](=O)[O-])cc1[N+](=O)[O-] [IIb2, 2-[2-(Aminocarbonyl)(2-bromoethyl)-4,6-dinitroanilino]ethyl methanesulfonate] | – | 227 | – | – | 762 | – | 7.70 | 5.37 | 8.15 | 5.22 | – | – | – | – | – | – | –
CS(=O)(=O)OCCN(CCI)c1c(C(=O)NCCO)cc([N+](=O)[O-])cc1[N+](=O)[O-] [IIb4, 2-((2-Iodoethyl)-2-{[(2-hydroxyethyl)amino]carbonyl}-4,6-dinitroanilino)ethyl methanesulfonate] | – | – | – | – | – | – | – | – | – | – | 95 | 6.35 | 7 | 5.35 | 6.54 | 31^f | 5.05
CC(O)CNC(=O)c1cc([N+](=O)[O-])cc([N+](=O)[O-])c1N(CCBr)CCOS(C)(=O)=O (stereo not shown) [IIb5, 2-((2-Bromoethyl)-2-{[(2-hydroxypropyl)amino]carbonyl}-4,6-dinitroanilino)ethyl methanesulfonate] | – | – | – | – | – | – | – | – | – | – | 150 | 6.47 | 19 | 5.40 | 6.60 | 12^f | 5.54
CS(=O)(=O)OCCN(CCBr)c1c(C(=O)NCC(O)CO)cc([N+](=O)[O-])cc1[N+](=O)[O-] (stereo not shown) [IIb6, 2-((2-Bromoethyl)-2-{[(2,3-dihydroxypropyl)amino]carbonyl}-4,6-dinitroanilino)ethyl methanesulfonate] | – | 52 | – | – | 140 | – | 6.68 | 4.96 | 6.72 | 4.59 | – | – | – | – | – | – | –
CS(=O)(=O)OCCN(CCBr)c1c(C(=O)NCCCN2CCOCC2)cc([N+](=O)[O-])cc1[N+](=O)[O-] [IIb7, 2-[(2-Bromoethyl)-2-({[3-(4-morpholinyl)propyl]amino}carbonyl)-4,6-dinitroanilino]ethyl methanesulfonate] | – | 22 | – | – | 102 | – | 7.30 | 6.05 | 7.52 | 5.51 | – | – | – | – | – | – | –
COC(=O)CCNC(=O)c1cc([N+](=O)[O-])cc([N+](=O)[O-])c1N(CCBr)CCOS(C)(=O)=O [IIb9, Methyl 3-{[2-((2-bromoethyl){2-[(methylsulfonyl)oxy]ethyl}amino)-3,5-dinitrobenzoyl]amino}propanoate] | 6.62 | 6.3 | 5.84 | 6.82 | 25 | 5.43 | – | – | – | – | – | – | – | – | – | – | –
CS(=O)(=O)OCCN(CCCl)c1ccc([N+](=O)[O-])c(C(N)=O)c1[N+](=O)[O-] [IIc1, 2-[3-(Aminocarbonyl)(2-chloroethyl)-2,4-dinitroanilino]ethyl methanesulfonate] | – | 120 | – | – | 390 | – | 6.00 | 3.92 | 6.26 | 3.71 | – | – | – | – | – | – | –
CS(=O)(=O)OCCN(CCBr)c1c([N+](=O)[O-])ccc(C(N)=O)c1[N+](=O)[O-] [IIc2, 2-[3-(Aminocarbonyl)(2-bromoethyl)-2,6-dinitroanilino]ethyl methanesulfonate] | – | 271 | – | – | 724 | – | 6.51 | 4.07 | 6.68 | 3.82 | – | – | – | – | – | – | –
CS(=O)(=O)OCCN(CCBr)c1c([N+](=O)[O-])ccc(C(=O)NCCO)c1[N+](=O)[O-] [IIc3, 2-((2-Bromoethyl)-3-{[(2-hydroxyethyl)amino]carbonyl}-2,6-dinitroanilino)ethyl methanesulfonate] | – | – | – | – | – | – | – | – | – | – | 146 | 5.54 | 20 | 4.55 | 5.29 | 83^f | 3.37
CS(=O)(=O)OCCN(CCBr)c1c([N+](=O)[O-])ccc(C(=O)NCCCCO)c1[N+](=O)[O-] [IIc6, 2-((2-Bromoethyl)-3-{[(4-hydroxybutyl)amino]carbonyl}-2,6-dinitroanilino)ethyl methanesulfonate] | – | – | – | – | – | – | – | – | – | – | – | – | – | – | 4.70 | 16^f | 3.50
CS(=O)(=O)OCCN(CCCl)c1ccc([N+](=O)[O-])c(C(=O)NCC(O)CO)c1[N+](=O)[O-] (stereo not shown) [IIc7, 2-((2-Chloroethyl)-3-{[(2,3-dihydroxypropyl)amino]carbonyl}-2,4-dinitroanilino)ethyl methanesulfonate] | – | 262 | – | – | 267 | – | 5.37 | 3.07 | 5.18 | 2.77 | – | – | – | – | – | – | –
CS(=O)(=O)OCCN(CCBr)c1ccc([N+](=O)[O-])c(C(=O)NCC(O)CO)c1[N+](=O)[O-] (stereo not shown) [IIc8, 2-((2-Bromoethyl)-3-{[(2,3-dihydroxypropyl)amino]carbonyl}-2,4-dinitroanilino)ethyl methanesulfonate] | – | 141 | – | – | 509 | – | 5.82 | 3.67 | 5.74 | 3.05 | – | – | – | – | – | – | –
CS(=O)(=O)OCCN(CCCl)c1ccc([N+](=O)[O-])c(C(=O)NCCCN2CCOCC2)c1[N+](=O)[O-] [IIc9, 2-[(2-Chloroethyl)-3-({[3-(4-morpholinyl)propyl]amino}carbonyl)-2,4-dinitroanilino]ethyl methanesulfonate] | – | 8.3 | – | – | 14 | – | 4.51 | 3.58 | 4.49 | 3.36 | – | – | – | – | – | – | –
CS(=O)(=O)OCCN(CCBr)c1ccc([N+](=O)[O-])c(C(=O)NCCCN2CCOCC2)c1[N+](=O)[O-] [IIc10, 2-[(2-Bromoethyl)-3-({[3-(4-morpholinyl)propyl]amino}carbonyl)-2,4-dinitroanilino]ethyl methanesulfonate] | – | 8.2 | – | – | 14 | – | 4.96 | 4.03 | 4.96 | 3.81 | – | – | – | – | – | – | –
